In publication PMC6825211 (Nature Communications, 2019):

Biological target: PDGFR-ALPHA (Homo sapiens, UniProt P16234)
Experiment: Nanosyn kinase profiling, mobility shift assay
Conditions: read-out: % inhibition by neratinib

Sequence of PDGFR-ALPHA (P16234 24-1089): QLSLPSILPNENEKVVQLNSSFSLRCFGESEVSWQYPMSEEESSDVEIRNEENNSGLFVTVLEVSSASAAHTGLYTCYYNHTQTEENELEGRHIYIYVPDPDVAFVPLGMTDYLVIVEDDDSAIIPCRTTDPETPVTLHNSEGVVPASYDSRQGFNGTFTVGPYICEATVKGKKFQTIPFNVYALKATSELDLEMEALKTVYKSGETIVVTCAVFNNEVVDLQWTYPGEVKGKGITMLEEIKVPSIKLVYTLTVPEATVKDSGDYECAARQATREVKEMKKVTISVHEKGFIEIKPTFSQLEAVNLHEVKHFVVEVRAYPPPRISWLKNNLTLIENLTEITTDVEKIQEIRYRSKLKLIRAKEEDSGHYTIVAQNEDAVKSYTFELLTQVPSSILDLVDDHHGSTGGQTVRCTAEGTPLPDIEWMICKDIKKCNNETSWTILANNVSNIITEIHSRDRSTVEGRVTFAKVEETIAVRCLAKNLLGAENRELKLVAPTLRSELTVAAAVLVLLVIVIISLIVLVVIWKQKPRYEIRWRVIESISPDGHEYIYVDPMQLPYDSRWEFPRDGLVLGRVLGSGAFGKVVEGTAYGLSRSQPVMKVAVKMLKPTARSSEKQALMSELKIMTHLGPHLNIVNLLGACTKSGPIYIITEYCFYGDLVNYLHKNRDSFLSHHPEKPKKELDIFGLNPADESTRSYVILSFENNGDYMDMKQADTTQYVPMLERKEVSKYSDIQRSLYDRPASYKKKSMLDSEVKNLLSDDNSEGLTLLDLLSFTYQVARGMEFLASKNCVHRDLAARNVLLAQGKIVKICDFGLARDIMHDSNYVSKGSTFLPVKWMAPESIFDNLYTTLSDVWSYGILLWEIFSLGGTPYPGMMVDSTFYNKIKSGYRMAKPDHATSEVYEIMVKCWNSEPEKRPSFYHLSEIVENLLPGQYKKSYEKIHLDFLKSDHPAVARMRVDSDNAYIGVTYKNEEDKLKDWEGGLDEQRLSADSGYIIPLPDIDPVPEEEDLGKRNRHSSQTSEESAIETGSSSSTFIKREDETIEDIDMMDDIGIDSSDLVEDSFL

Structure (SMILES): CCOc1cc2ncc(C#N)c(Nc3ccc(OCc4ccccn4)c(Cl)c3)c2cc1NC(=O)/C=C/CN(C)C [neratinib]
- inhibition at 10 µM: 31%
